In data set [1] the target is T1, PAR4 (Homo sapiens (Human), UniProt Q96RI0). Put plainly: Gamma thrombin induced platelet aggregation assay (PRP assay). Format: cell-based. The settings on record: human platelet rich plasma, 96-well microplate. The procedure: Platelet aggregation can be monitored in a 96-well microplate aggregation assay format or using standard platelet aggregometer.
The platelet rich plasma was isolated by centrifugation at 170 g for 14 minutes.
The ability of the compounds of the current invention to inhibit platelet aggregation induced by gamma-thrombin was tested in a 96-well microplate aggregation assay format. Briefly, PRP or washed platelet suspension (100 μl) was pre-incubated for 5 minutes at room temperature with varying concentrations of compounds. Aggregation was initiated by ˜10-50 nM gamma thrombin (Haematologic Technologies, Essex Junction, Vt.), which was titrated daily to achieve 80% platelet aggregation. Refludan at 1 U/mL (Berlex, Montville, N.J.) was added to the gamma thrombin sample to prevent PAR1 activation induced by residual alpha-thrombin contamination. The plate was then placed into a 37° C. Molecular Devices (Sunnyvale, Calif.) SPECTRAMAX® Plus Plate Reader. […] The plate also included an untreated control sample which served as ODmax, while buffer containing no platelets was the ODmin. Platelet aggregation was determined by subtracting the ODmax from the ODmin for the 100% aggregation value. In experimental samples, the observed transmission was subtracted from the minimum value and then compared to the 100% aggregation value to determine the percentage aggregation. IC50 values are determined using Excel Fit software.

Data set [2] deals with T1, PAR4. Put plainly: FLIPR assay in PAR4-expressing HEK293 cells (PAR4 antagonist activity, calcium mobilization). The class given is cell-based. The conditions noted are these: H-Ala-Phe(4-F)-Pro-Gly-Trp-Leu-Val-Lys-Asn-Gly-NH2-induced calcium mobilization. In short, it runs like this: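 HEK293 EBNA cells stably expressing human PAR4 (also endogenous PAR1) preincubated 30 min at room temperature with compound in HBSS/10 mM HEPES, 0.67% DMSO final. PAR4 agonist peptide then added and intracellular calcium mobilization monitored by fluorescence.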
(Calcium assays in cells follow changes in intracellular calcium, usually with a dye or a luminescent sensor.)

A further data set addresses PAR1 (Homo sapiens (Human), UniProt P25116). The conditions noted are these: ACS patients, phase III; cited from earlier work.

T1 sequence (Q96RI0 18-385): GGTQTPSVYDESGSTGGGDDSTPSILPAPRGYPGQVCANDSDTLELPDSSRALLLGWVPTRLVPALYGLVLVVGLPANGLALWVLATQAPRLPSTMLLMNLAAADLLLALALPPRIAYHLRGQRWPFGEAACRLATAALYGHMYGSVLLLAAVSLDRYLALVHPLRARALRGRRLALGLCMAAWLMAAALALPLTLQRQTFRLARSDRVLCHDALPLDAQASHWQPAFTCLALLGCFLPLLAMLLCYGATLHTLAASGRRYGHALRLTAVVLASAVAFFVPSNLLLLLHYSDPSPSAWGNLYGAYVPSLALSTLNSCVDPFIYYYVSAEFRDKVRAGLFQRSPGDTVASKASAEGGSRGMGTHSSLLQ
PAR1, sequence (P25116 22-425): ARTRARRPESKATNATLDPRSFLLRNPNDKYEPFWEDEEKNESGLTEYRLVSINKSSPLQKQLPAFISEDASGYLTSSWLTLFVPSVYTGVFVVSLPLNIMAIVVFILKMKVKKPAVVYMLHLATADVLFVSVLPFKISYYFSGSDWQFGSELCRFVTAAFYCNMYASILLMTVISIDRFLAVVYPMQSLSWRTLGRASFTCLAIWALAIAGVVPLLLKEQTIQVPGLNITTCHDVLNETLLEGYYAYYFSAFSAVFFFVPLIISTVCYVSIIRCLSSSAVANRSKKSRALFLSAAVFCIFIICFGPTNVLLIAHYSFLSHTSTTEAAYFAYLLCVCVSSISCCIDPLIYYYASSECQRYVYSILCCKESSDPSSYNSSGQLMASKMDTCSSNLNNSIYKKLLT

As a reminder, the IC50 is the midpoint of a concentration-inhibition curve. A lower IC50 goes with higher potency. By EC50 is commonly meant the concentration that produces a half-maximal response. For the compound `COc1cc(OCc2csc(C3(O)CCC(C(=O)N4CCCC4)CC3)n2)c2cc(-c3cn4nc(OC)sc4n3)oc2c1` (centres unmarked) [Example 151, (4-Hydroxy-4-(4-(((6-methoxy-2-(2-methoxyimidazo[2,1-b][1,3,4]thiadiazol-6-yl)benzofuran-4-yl)oxy)methyl)thiazol-2-yl)cyclohexyl)(pyrrolidin-1-yl)methanone], the concentration for half-maximal inhibition (IC50) at PAR4 [1] came to 26 nM. Besides, the 50% effective concentration (EC50) at PAR4 [2] was determined as 0.84 nM.

Take `COc1cc(OCc2csc(C3(O)CCC(C(=O)N(C)CC#N)CC3)n2)c2cc(-c3cn4nc(OC)sc4n3)oc2c1` (centres unmarked) [Example 152, N-(Cyanomethyl)-4-hydroxy-4-(4-(((6-methoxy-2-(2-methoxyimidazo[2,1-b][1,3,4]thiadiazol-6-yl)benzofuran-4-yl)oxy)methyl)thiazol-2-yl)-N-methylcyclohexanecarboxamide]: the IC50 at PAR4 [1] stood at 28 nM. At PAR4 [2], the concentration giving a half-maximal response (EC50) is 0.68 nM.

For `COc1cc(OCc2csc(C3(c4ccc(C(=O)N(C)C)cc4)CCOCC3)n2)c2cc(-c3cn4nc(OC)sc4n3)oc2c1` [Example 161, 4-(4-(4-(((6-Methoxy-2-(2-methoxyimidazo[2,1-b][1,3,4]thiadiazol-6-yl)benzofuran-4-yl)oxy)methyl)thiazol-2-yl)tetrahydro-2H-pyran-4-yl)-N,N-dimethylbenzamide], the IC50 against PAR4 [1] is 27 nM. On PAR4 [2], the 50% effective concentration (EC50) came out at 0.69 nM.

The compound `COc1cc(OCc2csc(-c3ccccc3)n2)c2cc(-c3cn4nc([C@H](C)F)sc4n3)oc2c1` [Example 192, (S)-2-(1-Fluoroethyl)-6-(6-methoxy-4-((2-phenylthiazol-4-yl)methoxy)benzofuran-2-yl)imidazo[2,1-b][1,3,4]thiadiazole] gave a half-inhibitory concentration (IC50) on PAR4 [1] of 28 nM. Also, the EC50 on PAR4 [2] came out at 1.9 nM.

The compound `CC(F)(F)c1nn2cc(-c3cc4c(OCc5csc(-c6ccccc6)n5)nccc4o3)nc2s1` [Example 202, 2-(2-(1,1-Difluoroethyl)imidazo[2,1-b][1,3,4]thiadiazol-6-yl)-4-((2-phenylthiazol-4-yl)methoxy)furo[3,2-c]pyridine] had an IC50 against PAR4 [1] greater than 3000 nM. For the same compound, the concentration giving a half-maximal response (EC50) at PAR4 [2] came out at 43 nM.

`COc1cc(OCc2csc(Br)n2)c2cc(-c3cn4nc(C)ccc4n3)oc2c1` [Example 205, 2-Bromo-4-(((6-methoxy-2-(6-methylimidazo[1,2-b]pyridazin-2-yl)benzofuran-4-yl)oxy)methyl)thiazole] had an IC50 against PAR4 [1] of 2380 nM. Moreover, the half-maximal effective concentration (EC50) on PAR4 [2] worked out at 3.5 nM.

In the case of `COc1cc(OCc2csc(-c3ccc(Cl)cc3)n2)c2cc(-c3cn4nc(C)ccc4n3)oc2c1` [Example 209, 2-(4-Chlorophenyl)-4-(((6-methoxy-2-(6-methylimidazo[1,2-b]pyridazin-2-yl)benzofuran-4-yl)oxy)methyl)thiazole], on PAR4 [1], the IC50 came to 23 nM. In addition, the EC50 at PAR4 [2] was found to be 1.2 nM.

On PAR4 [1], `COc1cc(OCc2csc(-c3ccc4c(c3)OCO4)n2)c2cc(-c3cn4nc(C)ccc4n3)oc2c1` [Example 219] yielded an IC50 of 25 nM. Moreover, the EC50 at PAR4 [2] worked out at 1 nM.

`COc1cc(OCc2csc(N3CCN(CCO)CC3)n2)c2cc(-c3cn4nc(C)ccc4n3)oc2c1` [Example 243] had a concentration for half-maximal inhibition (IC50) against PAR4 [1] greater than 3000 nM. In addition, on PAR4 [2], the 50% effective concentration (EC50) stood at 32 nM.

In turn, `COc1cc(OCc2csc(NCCN3CCOCC3)n2)c2cc(-c3cn4nc(C)ccc4n3)oc2c1` [Example 244] yielded an IC50 against PAR4 [1] greater than 3000 nM. For the same compound, the EC50 at PAR4 [2] was 909 nM.

On to `COc1cc(OCc2csc(NCc3cccnc3)n2)c2cc(-c3cn4nc(C)ccc4n3)oc2c1` [Example 245], for which, at PAR4 [1], the 50% inhibitory concentration (IC50) was determined as 3130 nM. Besides, on PAR4 [2], the concentration for a half-maximal effect (EC50) came to 5.5 nM.

For the compound `COc1cc(OCc2csc(N(C)CCO)n2)c2cc(-c3cn4nc(C)ccc4n3)oc2c1` [Example 249], the half-inhibitory concentration (IC50) on PAR4 [1] is greater than 3000 nM. The EC50 at PAR4 [2] came to 15 nM.

Regarding `COc1cc(OCc2csc(NCCCN3CCCC3=O)n2)c2cc(-c3cn4nc(C)ccc4n3)oc2c1` [Example 254], on PAR4 [1], the half-maximal inhibitory concentration (IC50) is greater than 3000 nM. The EC50 at PAR4 [2] stood at 19 nM.

Consider `COc1cc(OCc2csc(NCC3CCCO3)n2)c2cc(-c3cn4nc(C)ccc4n3)oc2c1` (centres unmarked) [Example 256], for which, on PAR4 [1], the concentration for half-maximal inhibition (IC50) was greater than 3000 nM. Further, the EC50 on PAR4 [2] is 7.8 nM.

With `COc1cc(OCc2csc(N3CCC3)n2)c2cc(-c3cn4nc(C)ccc4n3)oc2c1` [Example 257], at PAR4 [1], the IC50 is greater than 3000 nM. The EC50 at PAR4 [2] amounted to 7.5 nM.

For `COc1cc(OCc2csc(Nc3ccc4[nH]ccc4c3)n2)c2cc(-c3cn4nc(C)ccc4n3)oc2c1` [Example 261], at PAR4 [1], the IC50 is greater than 3000 nM. Moreover, at PAR4 [2], the EC50 is 39 nM.

At PAR4 [1], `COc1cc(OCc2csc(Nc3cc(C)cc(C)n3)n2)c2cc(-c3cn4nc(C)ccc4n3)oc2c1` [Example 264] yielded an IC50 greater than 3000 nM. The 50% effective concentration (EC50) on PAR4 [2] stood at 207 nM.

With `COc1cc(OCc2csc(Nc3cc(F)ccc3F)n2)c2cc(-c3cn4nc(C)ccc4n3)oc2c1` [Example 265], the IC50 against PAR4 [1] is greater than 3000 nM. In addition, at PAR4 [2], the EC50 is 48 nM.

Turning to `COc1cc(OCc2csc(Nc3cc(C)ccc3F)n2)c2cc(-c3cn4nc(C)ccc4n3)oc2c1` [Example 266], the IC50 against PAR4 [1] is greater than 3000 nM. Moreover, the EC50 on PAR4 [2] was 16 nM.

With `COc1cc(OCc2csc(N3CCN(c4cccc(Cl)c4)CC3)n2)c2cc(-c3cn4nc(C)ccc4n3)oc2c1` [Example 268], the IC50 against PAR4 [1] came to 2360 nM. On PAR4 [2], the concentration for a half-maximal effect (EC50) was determined as 1.7 nM.

As to `COc1cc(OCc2csc(N3CCC(N4CCOCC4)CC3)n2)c2cc(-c3cn4nc(C)ccc4n3)oc2c1` [Example 273], the 50% inhibitory concentration (IC50) on PAR4 [1] is greater than 3000 nM. The EC50 at PAR4 [2] was 53 nM.

Regarding `COc1cc(OCc2csc(N3CCC[C@@H]3C)n2)c2cc(-c3cn4nc(C)ccc4n3)oc2c1` [Example 274], the half-inhibitory concentration (IC50) against PAR4 [1] is greater than 3000 nM. For the same compound, at PAR4 [2], the concentration for a half-maximal effect (EC50) stood at 3.4 nM.

In turn, `COc1cc(OCc2csc(N3CCC[C@H]3C)n2)c2cc(-c3cn4nc(C)ccc4n3)oc2c1` [Example 275] displayed a concentration for half-maximal inhibition (IC50) against PAR4 [1] of 2630 nM. For the same compound, on PAR4 [2], the EC50 amounted to 4.2 nM.

In the case of `COc1cc(OCc2csc(N3CCN(C)C(C)C3)n2)c2cc(-c3cn4nc(C)ccc4n3)oc2c1` (centres unmarked) [Example 276], the IC50 at PAR4 [1] is greater than 3000 nM. The EC50 at PAR4 [2] was 24 nM.

The compound `COc1cc(OCc2csc(N(C)C)n2)c2cc(-c3cn4nc(C)ccc4n3)oc2c1` [Example 279] returned an IC50 against PAR4 [1] greater than 3000 nM. For the same compound, the concentration giving a half-maximal response (EC50) on PAR4 [2] amounted to 7.3 nM.

The compound `COc1cc(OCc2csc(Nc3ccc4scnc4c3)n2)c2cc(-c3cn4nc(C)ccc4n3)oc2c1` [Example 281] returned a half-inhibitory concentration (IC50) at PAR4 [1] greater than 3000 nM. Besides, the EC50 at PAR4 [2] is 0.6 nM.

At PAR4 [1], `COc1cc(OCc2csc(Nc3ccc(F)c(C)n3)n2)c2cc(-c3cn4nc(C)ccc4n3)oc2c1` [Example 282] came in with an IC50 greater than 3000 nM. The EC50 at PAR4 [2] came out at 3480 nM.

In turn, `COc1cc(OCc2csc(N3CCN(c4ccc(C)cn4)CC3)n2)c2cc(-c3cn4nc(C)ccc4n3)oc2c1` [Example 285] had a concentration for half-maximal inhibition (IC50) against PAR4 [1] of 2340 nM. Also, the half-maximal effective concentration (EC50) at PAR4 [2] came to 2.9 nM.

The compound `COc1cc(OCc2csc(-c3ccc(C(=O)NCC(F)(F)F)cc3)n2)c2cc(-c3cn4nc(OC)sc4n3)oc2c1` [Example 305] had an IC50 on PAR4 [1] of 2 nM. Besides, the EC50 on PAR4 [2] was determined as 1 nM.

`COc1cc(OCc2csc(-c3ccc(C(=O)N(C)CCC#N)cc3)n2)c2cc(-c3cn4nc(OC)sc4n3)oc2c1` [Example 311] displayed a 50% inhibitory concentration (IC50) against PAR4 [1] of 2 nM. For the same compound, the EC50 on PAR4 [2] stood at 0.65 nM.

In the case of `CCOC(=O)N[C@@H]1CC[C@@H]2[C@@H](C1)C[C@H]1C(=O)O[C@H](C)[C@H]1[C@H]2/C=C/c1ccc(-c2cccc(F)c2)cn1` [vorapaxar], on PAR1, the cardiovascular events entry is given as “did not significantly reduce cardiovascular events” and the “risk of major bleeding” value is listed as “significantly increased the risk of major bleeding”.

These data come from patent US9688695B2, “Imidazothiadiazole and imidazopyrazine derivatives as protease activated receptor 4 (PAR4) inhibitors for treating platelet aggregation” (BRISTOL-MYERS SQUIBB COMPANY, priority 2012, dated 2017).
